Experimental data reported in the NIST ThermoML archive (doi:10.1021/je034062r).

Experiment: xn = mol fraction of the nth substance listed
Settings: for surface tension liquid-gas: Pendant drop shape; for mass density: Liquid

CC(C)=O [acetone] + Cc1ccccc1
Settings	mass density, 308.15 K [kg/m3]	mass density, 313.15 K [kg/m3]	mass density, 318.15 K [kg/m3]	mass density, 323.15 K [kg/m3]	mass density, 328.15 K [kg/m3]	mass density, 333.15 K [kg/m3]	surface tension liquid-gas, 307.86 K [mN/m]	surface tension liquid-gas, 317.86 K [mN/m]	surface tension liquid-gas, 327.88 K [mN/m]
x2 = 0	775.4	769.6	762.5	756.2	749.3	742.3	–	20.33	19.01
x2 = 0.1	787.7	782	776.2	770.2	764	757.3	–	20.9	19.74
x2 = 0.2002	–	790.4	784.6	778.9	773.2	767.5	–	21.44	20.32
x2 = 0.3002	805.5	800.1	794.6	789.1	783.5	778.1	–	22.18	21.07
x2 = 0.3997	815.1	809.7	804.2	798.6	792.9	787.3	–	22.67	21.8
x2 = 0.4973	822.1	816.9	811.6	806.3	801	795.6	–	23.25	22.2
x2 = 0.6011	829.7	824.7	819.5	814.4	809.2	803.9	–	24.11	22.97
x2 = 0.7004	836.4	831.4	826.4	–	816.3	811.2	–	24.4	23.56
x2 = 0.7998	842.4	837.6	832.7	827.7	822.8	817.8	–	24.99	23.83
x2 = 0.8982	847.9	843.2	838.4	833.6	828.7	823.8	26.24	25.2	24.14
